For one data set, the system named is FGF19. The experiment in a line: Pharmacodynamic marker FGF19 with increasing doses. Format: in vivo. The settings on record: increasing doses up to 3000 μg.
In the next data set the test system is STAM mice. Briefly: STAM model of NASH.
The test system of the next data set is NASH patients. Briefly: Tropifexor 140-250 μg in patients with mild to moderate NASH and F2/F3 fibrosis. Format: in vivo, human. As to conditions: dose of about 140 μg to about 250 μg. An excerpt: Adult male and female patients with EITHER histologic evidence of NASH on liver biopsy within 2 years prior to randomization and elevated ALT, OR phenotypic diagnosis of NASH based on elevated ALT, Type 2 diabetes mellitus or elevated HbA1c and increased BMI, in both cases accompanied by liver fat >10% on centrally-read MRI.
Diagnosis of NASH: Adequate liver biopsy sample for evaluation by Central Reader to confirm Histologic evidence of NASH based on liver biopsy obtained during the Screening period or within 6 months before randomization with a diagnosis consistent with NASH, fibrosis level F2 or F3, and no diagnosis of alternative chronic liver diseases._AND_ALT ≥43 IU/L (males) or ≥28 IU/L (females).
Patients are assigned at the baseline visit to one of the following 3 treatment arms in a ratio of 1:1:1 in a blinded manner. Placebo capsules will be given to maintain blinding.
Arm 3: Once daily (morning, fasting) treatment with matching placebo for 48 weeks
The efficacy variables are: MRI for hepatic fat fraction, Liver Function Test, Liver histology, Coagulation test, Markers of liver fibrosis, NAFLD Fibrosis score, Fasting lipids, Fasting insulin and glucose, Soluble biomarkers.

For the next data set, the system named is NASH mice. Briefly: Diet-induced (AMLN diet) obese, insulin-resistant NASH model. It is filed as in vivo, mouse. The text has this:
A separate model for diet-induced NASH was developed as described by Trevaskis et al. Male C57BI6 mice aged ˜6 weeks were maintained on a high fat (40% kcal; Primex), high fructose (22% by weight), and high cholesterol (2% by weight) diet (Research Diets Inc., New Brunswick, N.J. cat. no. D09100301) for 26 weeks to induce NASH. Control animals received low-fat diet (10% kcal) with no fructose or cholesterol (Research Diets, cat. no. D09100304). […] . Expression of collagen, type I, alpha 1 (Col1a1) and tissue inhibitor of metalloproteinase 1 (Timp1) genes was analyzed by real time quantitative PCR.
. NASH was established in mice by feeding a high trans-fat, high fructose, and high cholesterol diet (AMLN diet) for 26 weeks followed by compound treatment for an additional 4 weeks. […] . […] .

Data set [1] can be described thus: Exposure prediction and exposure-response analysis in NASH patients. It is filed as in vivo, human.
The nature of data set [2]: Oral gavage toxicity study in dogs for up to 39 weeks. The settings on record: dog, in vivo.
In data set [3] the test system is ANIT-induced cholestatic rats. The experiment in a line: ANIT-induced cholestasis rat model.
Procedure: Rats were sacrificed 3-5 h after the last dose, blood samples were collected by cardiac puncture, and serum biomarkers of cholestasis, namely alanine transaminase (ALT), aspartate transaminase (AST), alkaline phosphatase (ALP), total bilirubin, total BA, and gamma-glutamyl transpeptidase (GGT) were analyzed.
(§1) Liver sections were fixed in 4% paraformaldehyde for 48 h and shipped for histopathological analysis. Liver damage and collagen deposition were assessed by H&E staining and picrosirius red staining, respectively. […] Quantification of images was done with a positive pixel count algorithm using Aperio software (Aperio, Inc., Vista, Calif.).
Another data set has as its system FGRS. Briefly: FGRS effects (specificity).
In another data set the test system is NASH subjects. The settings on record: FLINT trial; placebo 6%; cited from earlier work.

The structures appear in SMILES notation.

Procedure for STAM mice: Further experiments in the STAM model were performed: 2-day old male C57BI/6J mice were injected with streptozotocin and placed on a high-fat diet (HFD) from weeks 4-12 (HFD-32; CLEA-Japan, Tokyo, Japan). […] Hematoxylin & eosin (H&E)-stained sections were evaluated for nonalcoholic fatty liver disease (NAFLD) activity score (NAS) according to previously defined criteria. Liver total lipid-extracts were isolated, and triglycerides were measured using the Triglyceride E-test (Wako Pure Chemical Industries, Ltd., Japan).
as §1

As usually defined, the AUC is concentration integrated over time. For orientation: AUC(0-t) means the area under the concentration-time curve up to a stated or last time point. The low end stands for less exposure, the high end for more exposure. For `O=C(O)c1cc(F)c2nc(N3C4CC[C@H]3C[C@H](OCc3c(-c5ccccc5OC(F)(F)F)noc3C3CC3)C4)sc2c1` [tropifexor, 2-[(1R,3r,5S)-3-({5-cyclopropyl-3-[2-(trifluoromethoxy)phenyl]-1,2-oxazol-4-yl}methoxy)-8-azabicyclo[3.2.1]octan-8-yl]-4-fluoro-1,3-benzothiazole-6-carboxylic acid], the FGF19 entry with FGF19 is given as “continues to rise”. The “NAFLD activity score (NAS)” value with STAM mice (doses 0.1 and 0.3 mg/kg, qd orally weeks 9-12) was “significant decrease”. Besides, the fibrosis area entry in the data set with STAM mice (in comparison with baseline group) is reported as “decreased in comparison with baseline group”. The “pericellular fibrosis (Sirius Red-positive areas)” value in the data set on STAM mice (mouse, in vivo) was “statistically significant dose-dependent reduction”. The liver triglycerides result in the data set on STAM mice (tropifexor qd orally weeks 9-12, relative to baseline group) was “reduction in liver triglycerides”. Besides, in the data set on NASH patients, the “patients with liver fibrosis improvement (at least 1 stage) with no worsening of NAS” value is reported as “about 50%”; the “patients with normalization of liver enzymes” value was at least 50%; the “patients with resolution of NASH (NAS 0 or 1) with no worsening of liver fibrosis” value is “about 30%”; the “pruritus outcomes (NASH PRO, 5-D pruritus or VAS)” value is reported as “no significant pruritus outcomes”. In addition, the “reduction of hepatic fat, absolute” value in the data set on NASH patients is listed as 5%. Further, in the data set with NASH mice (0.3 and 0.9 mg/kg dose groups), the “IBA positive staining (inflammation)” value is given as “normalized to the same level of the control diet group”; the “liver histology: steatosis, ballooning, and inflammation” value is given as “completely reverted”. Moreover, the “collagen deposition in liver (trichrome staining)” value in the data set with NASH mice (even to levels lower than low-fat diet control mice) is “strongly abrogates”. For the same compound, the ALT/AST entry with NASH mice (high dose) is “reduced ALT/AST to an even greater extent”. In addition, the hepatic crown-like structures result in the data set on NASH mice (mid- and high dose) is “completely eliminated”. Besides, the “ALT and AST levels” value with NASH mice (mid-dose level) is “normalized ALT and AST levels to that of control animals”. For the same compound, in the data set on NASH mice (mouse, in vivo), the “mRNA levels of fibrogenic markers Col1a1 and TIMP1” value is reported as “dramatically reduced”; the “steatosis by quantification of liver triglycerides” value is reported as “Dose-dependent reduction in steatosis”. In the data set with NASH mice (relative to vehicle-treated controls), the “ALT and AST” value was “dose-dependent reduction”. Moreover, the predicted exposure entry in data set [1] (200 μg daily in NASH patients) is given as “approximately 80 ng·hr/ml”. For the same compound, the “NASH patients achieving an AUC >40 ng*h/mL” value in data set [1] (200 μg dose) was around 95%. Moreover, the exposure (AUC) in data set [1] (human, in vivo, oral, 200 ug, read-out: exposure level (AUC) in NASH patients) is 80 ng·h/mL. The compound further registered an AUC(0-t) in [2] (female) of 507 ng·h/mL. In data set [2] (male), this compound showed an AUC(0-t) of 898 ng·h/mL. For the same compound, in data set [3] (1.0 mg/kg dose, oral qd 5 days), the “levels of most cholestatic markers” value is “normalized to corresponding levels of vehicle-treated non-cholestatic control animals”. In data set [3] (dose-dependent manner), the “collagen deposition and liver fibrosis” value was “highly reduced”; the “quantitation of collagen deposition (fibrosis)” value is on record as “significantly decreased”. In addition, in data set [3] (doses as low as 0.3 mg/kg, oral qd 5 days), the “AST, ALT, total BAs, total bilirubin, and GGT levels” value was “marked reduction”. Besides, the “liver histology: necrosis of the bile duct epithelium, bile duct hyperplasia, inflammatory cell infiltrates” value in data set [3] (versus vehicle-treated cholestatic rats) was “dose-dependent improvement”. Besides, in the data set with FGRS, the FGRS effects entry is recorded as “no FGRS effects”.

`CC[C@H]1[C@@H](O)[C@@H]2[C@H](CC[C@]3(C)[C@@H]([C@H](C)CCC(=O)O)CC[C@@H]23)[C@@]2(C)CC[C@@H](O)C[C@@H]12` [OCA, 6α-ethyl-chenodeoxycholic acid]: the patients with pruritus in the data set with NASH subjects is 23%.
